In general, IC50 refers to the midpoint of a concentration-inhibition curve.

Structures are written as SMILES.

We go through 1 molecule from patent US20230339991A1, “HYPOXIA-ACTIVATED DNA ALKYLATING AGENT AND MEDICAL USE THEREOF” (ASCENTAWITS PHARMACEUTICALS, LTD., priority 2020, published 2023).

One test has as its system KP-4. The test is described as follows: Cytotoxicity, pancreatic cancer PA cells KP-4. The class given is cell-based. Conditions: Homo sapiens. The procedure: (§1) Compounds were exposed at various concentrations for 72 hours, followed by a wash step. Fresh medium was added for growth. The cell was stained to determine the cell survival rate and compared with controls treated with medium only.
(§2) In particular, exponentially grown cells were inoculated in 96-well plates at a density of 2×10^3 cells/100 μl/well and incubated for 24 hours at 37° C. and under the conditions of 5% CO2, 95% air and 100% relative humidity before addition of 99 μl of culture solution. The compounds were dissolved in 100% DMSO at 200 times of the desired final test concentration. When the drug was added, an aliquot of 1 μl of the compound at the specified concentration was added to microwells already containing 199 μl of medium to obtain the reported final drug concentration. After adding the drug, plates were incubated for an additional 72 hours at 37° C., 5% CO2, 95% air and 100% relative humidity. The cell assay plate was left to balance for 30 minutes at room temperature and 100 μL of medium was removed from per well. 100 μl CTG reagent (CelltiterGlo kit) was added into each well. The plate was placed on a fast shaker and shaked for 2 min, and kept in dark at room temperature for 30 min. The chemiluminescence signal value was read by Envision instrument. […]

A further test relates to NCI-H23. The test is described as follows: Cytotoxicity, NSCLC cell line NCI-H23. The class given is cell-based. Conditions: Homo sapiens. As for the experimental part: as §1, §2
For test [1], the system named is HuPrime model GA6201 human gastric cancer subcutaneous transplantation PDX tumor. The test is described as follows: GA6201 human gastric cancer subcutaneous PDX model. It is filed as in vivo, BALB/c nude mice. As for the experimental part:
Then the dose was changed to 10 mg/kg by intraperitoneal injection administration daily for 4 days (QD×4, Day14-Day17). The dose and mode of administration were then changed to 20 mg/kg via tail vein injection for one day (QD×1, Day18). After drug withdrawal for 10 days, the dose was changed again, and 50 mg/kg was administered via tail vein injection once a week for two weeks QW×2 (Day28, Day35).
The tumor volumes of mice from different groups were measured at different days and the average values were obtained.

Turning to `O=[N+]([O-])c1ccc(C(OP(=O)(N2CC2)N2CC2)C(F)(F)F)c2ccccc12` (racemic) [Compound A], the IC50 in the test with KP-4 is 6.1 µM; in the test with NCI-H23, 6.41 µM. Besides, the tumor volume turned out to be 121.79 mm^3 in test [1] (Group 06, 5-50 mg/kg regimen, day 3); 153.46 mm^3 in test [1] (Group 06, 5-50 mg/kg regimen, day 10); 191.17 mm^3 in test [1] (Group 06, 5-50 mg/kg regimen, day 14); 280.86 mm^3 in test [1] (Group 06, 5-50 mg/kg regimen, day 28); 300.46 mm^3 in test [1] (Group 06, 5-50 mg/kg regimen, day 42); 94.24 mm^3 in test [1] (Group 06, 5 then 10 mg/kg i.p., 20 and 50 mg/kg i.v. (Table 10), day 0).
